The text below walks through data of US20230257396A1, “MACROCYCLES AND THEIR USE” (BLOSSOMHILL THERAPEUTICS, INC., priority 2020, published 2023).

Common to all, as to assay: KINOMEscan kinase binding assay (Eurofins/DiscoveRx), % Ctrl
In assay [1] the target is T1, kinases (Homo sapiens, UniProt P00533, DEL752-759).
T1 construct: purchased Eurofins/DiscoveRx; host or cells: E. coli BL21-derived host (T7 phage display) for most kinases; HEK-293 for the rest
Summed up: (§1)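 Read-out is qPCR of kinase eluted from ligand-coated streptavidin beads after 1 h room-temperature competition with test compound. Values are % Ctrl at the tested concentration, lower meaning tighter binding.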

Assay [2] deals with T2, kinases (Homo sapiens, UniProt P00533, T790M).
T2 construct: purchased Eurofins/DiscoveRx; host or cells: E. coli BL21-derived host (T7 phage display) for most kinases; HEK-293 for the rest
In short, it runs like this:
as §1

Assay [3] addresses T3, kinases (Homo sapiens, UniProt P09619).
T3 construct: purchased Eurofins/DiscoveRx; host or cells: E. coli BL21-derived host (T7 phage display) for most kinases; HEK-293 for the rest
In short, it runs like this: as §1

Assay [4] deals with T4, kinases (Homo sapiens, UniProt P10721, D816H).
T4 construct: purchased Eurofins/DiscoveRx; host or cells: E. coli BL21-derived host (T7 phage display) for most kinases; HEK-293 for the rest
T4 sequence (P10721 26-976 D816H): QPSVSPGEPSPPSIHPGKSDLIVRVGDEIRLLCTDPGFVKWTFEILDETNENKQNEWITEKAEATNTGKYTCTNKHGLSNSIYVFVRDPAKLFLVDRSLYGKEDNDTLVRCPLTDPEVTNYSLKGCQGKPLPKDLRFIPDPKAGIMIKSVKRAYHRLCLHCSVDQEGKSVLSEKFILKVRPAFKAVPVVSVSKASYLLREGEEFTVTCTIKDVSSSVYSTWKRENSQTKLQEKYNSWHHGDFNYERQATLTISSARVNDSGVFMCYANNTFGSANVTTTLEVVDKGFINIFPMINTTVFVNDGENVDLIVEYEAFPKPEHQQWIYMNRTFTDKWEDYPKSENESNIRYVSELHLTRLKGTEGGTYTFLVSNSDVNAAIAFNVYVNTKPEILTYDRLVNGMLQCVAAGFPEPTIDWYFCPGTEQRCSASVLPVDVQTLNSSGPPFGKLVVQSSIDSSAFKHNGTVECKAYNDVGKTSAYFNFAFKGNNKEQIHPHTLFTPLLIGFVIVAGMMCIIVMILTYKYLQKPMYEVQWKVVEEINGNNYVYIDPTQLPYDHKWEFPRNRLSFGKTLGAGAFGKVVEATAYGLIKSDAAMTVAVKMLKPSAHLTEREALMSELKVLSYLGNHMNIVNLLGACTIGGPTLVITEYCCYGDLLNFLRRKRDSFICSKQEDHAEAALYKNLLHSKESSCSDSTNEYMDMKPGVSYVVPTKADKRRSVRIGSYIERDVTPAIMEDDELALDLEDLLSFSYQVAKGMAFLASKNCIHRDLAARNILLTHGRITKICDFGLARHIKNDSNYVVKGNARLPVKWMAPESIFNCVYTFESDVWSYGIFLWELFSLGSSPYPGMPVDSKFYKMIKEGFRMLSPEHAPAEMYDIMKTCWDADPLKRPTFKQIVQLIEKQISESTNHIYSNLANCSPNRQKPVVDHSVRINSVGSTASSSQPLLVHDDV
Summed up: as §1

In assay [5] the target is T5, kinases (Homo sapiens, UniProt P36888, D835H).
T5 construct: purchased Eurofins/DiscoveRx; host or cells: E. coli BL21-derived host (T7 phage display) for most kinases; HEK-293 for the rest
T5 sequence (P36888 27-993 D835H): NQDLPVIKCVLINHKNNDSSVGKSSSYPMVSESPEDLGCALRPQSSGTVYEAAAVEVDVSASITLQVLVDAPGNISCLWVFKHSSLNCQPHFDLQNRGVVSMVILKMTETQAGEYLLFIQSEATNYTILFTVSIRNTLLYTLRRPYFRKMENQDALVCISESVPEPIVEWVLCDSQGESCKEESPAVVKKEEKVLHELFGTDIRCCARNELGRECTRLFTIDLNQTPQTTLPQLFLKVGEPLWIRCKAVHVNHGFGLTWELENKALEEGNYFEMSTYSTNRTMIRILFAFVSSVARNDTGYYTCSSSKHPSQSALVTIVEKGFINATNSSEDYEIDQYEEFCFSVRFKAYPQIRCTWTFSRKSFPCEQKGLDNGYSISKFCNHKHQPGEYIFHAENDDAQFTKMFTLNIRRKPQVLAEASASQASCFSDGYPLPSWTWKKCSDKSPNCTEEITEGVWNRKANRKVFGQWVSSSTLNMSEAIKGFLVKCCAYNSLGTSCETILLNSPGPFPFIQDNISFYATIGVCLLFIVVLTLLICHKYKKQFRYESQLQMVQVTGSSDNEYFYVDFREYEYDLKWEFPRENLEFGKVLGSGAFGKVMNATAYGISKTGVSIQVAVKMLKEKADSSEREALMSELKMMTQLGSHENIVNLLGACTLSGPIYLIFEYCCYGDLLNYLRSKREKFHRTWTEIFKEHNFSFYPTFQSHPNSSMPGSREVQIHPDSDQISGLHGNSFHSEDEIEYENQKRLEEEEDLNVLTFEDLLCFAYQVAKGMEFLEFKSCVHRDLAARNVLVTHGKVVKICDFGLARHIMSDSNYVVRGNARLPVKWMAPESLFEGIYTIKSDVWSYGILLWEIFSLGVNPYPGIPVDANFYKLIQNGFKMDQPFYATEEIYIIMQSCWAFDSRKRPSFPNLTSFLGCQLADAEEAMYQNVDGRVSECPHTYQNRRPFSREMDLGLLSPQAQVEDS
Summed up: as §1

Assay [6] has as its target T6, kinases (Homo sapiens, UniProt P36888, D835V).
T6 construct: purchased Eurofins/DiscoveRx; host or cells: E. coli BL21-derived host (T7 phage display) for most kinases; HEK-293 for the rest
T6 sequence (P36888 27-993 D835V): T5 sequence (P36888 27-993 D835H) with H809V
In short, it runs like this: as §1

Setting [7] is: 1 μM; target EGFR(S752-I759del).

Numbering of substitutions follows the chain as printed.

T3 sequence (P09619 33-1106): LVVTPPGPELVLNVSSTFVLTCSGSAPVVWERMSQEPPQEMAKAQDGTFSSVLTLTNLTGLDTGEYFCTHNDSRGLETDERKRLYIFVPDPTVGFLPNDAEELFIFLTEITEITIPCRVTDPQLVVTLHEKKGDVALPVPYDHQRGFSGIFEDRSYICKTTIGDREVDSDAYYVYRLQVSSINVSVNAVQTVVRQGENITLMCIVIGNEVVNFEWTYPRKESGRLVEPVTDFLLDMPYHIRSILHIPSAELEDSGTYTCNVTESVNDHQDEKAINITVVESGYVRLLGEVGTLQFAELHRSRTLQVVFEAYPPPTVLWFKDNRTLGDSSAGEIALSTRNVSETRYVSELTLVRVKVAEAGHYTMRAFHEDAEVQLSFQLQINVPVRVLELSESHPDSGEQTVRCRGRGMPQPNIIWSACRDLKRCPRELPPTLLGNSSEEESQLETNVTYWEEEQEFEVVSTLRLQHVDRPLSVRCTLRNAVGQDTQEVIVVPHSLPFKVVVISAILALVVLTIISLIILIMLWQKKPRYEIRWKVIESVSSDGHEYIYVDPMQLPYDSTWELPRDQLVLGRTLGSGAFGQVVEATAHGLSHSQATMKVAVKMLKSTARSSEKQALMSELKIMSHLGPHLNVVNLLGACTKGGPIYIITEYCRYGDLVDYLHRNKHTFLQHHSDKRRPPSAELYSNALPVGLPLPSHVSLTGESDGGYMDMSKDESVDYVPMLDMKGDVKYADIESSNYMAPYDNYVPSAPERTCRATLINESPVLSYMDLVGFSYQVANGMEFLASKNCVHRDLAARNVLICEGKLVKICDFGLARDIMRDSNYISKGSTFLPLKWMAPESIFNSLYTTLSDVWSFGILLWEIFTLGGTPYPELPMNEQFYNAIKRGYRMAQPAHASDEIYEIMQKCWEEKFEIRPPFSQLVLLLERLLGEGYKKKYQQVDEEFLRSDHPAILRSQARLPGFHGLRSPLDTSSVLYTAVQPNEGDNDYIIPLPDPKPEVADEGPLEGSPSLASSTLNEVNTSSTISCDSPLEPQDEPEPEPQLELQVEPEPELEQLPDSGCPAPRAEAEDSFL

Regarding `Cc1cc2c([nH]1)/C=C1\C(=O)Nc3cc(Cl)c(cc31)SCCOCCN(C)C2=O` [Ex. 169, [16a(17)Z]-19-chloro-5-methyl-6,7,9,10-tetrahydro-1H-12,14-(ethanediylidene)dipyrrolo[3,4-g:2′,3′-j][1,4,13]oxathiazacyclopentadecine-4,16(5H,15H)-dione], at kinases [1] (setting [7]), the “% Ctrl, EGFR(S752-I759del)” value is 61 % Ctrl. Also, the “% Ctrl, EGFR(T790M)” value on kinases [2] (1 μM; target EGFR(T790M)) stood at 69 % Ctrl. Moreover, the “% Ctrl, PDGFRB” value on kinases [3] (1 μM; target PDGFRB) is on record as 0.9 % Ctrl. Moreover, the “% Ctrl, KIT(D816H)” value on kinases [4] (1 μM; target KIT(D816H)) is on record as 8.3 % Ctrl. Moreover, at kinases [5] (1 μM; target FLT3(D835H)), the “% Ctrl, FLT3(D835H)” value worked out at 0.1 % Ctrl. Also, the “% Ctrl, FLT3(D835V)” value on kinases [6] (1 μM; target FLT3(D835V)) is 0 % Ctrl.
Consider `Cc1cc2c([nH]1)/C=C1\C(=O)Nc3ccc(cc31)-c1c(C)n[nH]c1CNCCN(C)C2=O` [Ex. 127, [3a(4)Z]-6,9,16-trimethyl-9,10,11,12,13,14-hexahydro-1,17-(ethanediylidene)pyrazolo[4,3-m]dipyrrolo[3,2-f:3′,4′-i][1,4]diazacyclopentadecine-3,8(2H,5H)-dione], for which the “% Ctrl, EGFR(S752-I759del)” value at kinases [1] (1 μM; EGFR(S752-I759del)) is reported as 57 % Ctrl. Moreover, the “% Ctrl, EGFR(T790M)” value at kinases [2] (1 μM; EGFR(T790M)) amounted to 9.2 % Ctrl. Further, the “% Ctrl, PDGFRB” value at kinases [3] (1 μM; PDGFRB) came out at 28 % Ctrl. For the same molecule, on kinases [4] (1 μM; KIT(D816H)), the “% Ctrl, KIT(D816H)” value came out at 60 % Ctrl. In addition, the “% Ctrl, FLT3(D835H)” value on kinases [5] (1 μM; FLT3(D835H)) turned out to be 0.15 % Ctrl. For the same molecule, the “% Ctrl, FLT3(D835V)” value at kinases [6] (1 μM; FLT3(D835V)) came out at 0.15 % Ctrl.
`Cc1cc2c([nH]1)/C=C1\C(=O)Nc3cc(Cl)c(cc31)OCCO[C@@H](C(=O)N(C)C)CN(C)C2=O` [Ex. 137, [7R,16a(17)Z]-19-chloro-N,N,2,5-tetramethyl-4,16-dioxo-4,5,6,7,9,10,15,16-octahydro-1H-12,14-(ethanediylidene)dipyrrolo[3,2-i:3′,4′-l][1,4,7]dioxazacyclopentadecine-7-carboxamide]: the “% Ctrl, EGFR(S752-I759del)” value at kinases [1] (1 μM; EGFR(S752-I759del)) stood at 98 % Ctrl. Moreover, the “% Ctrl, EGFR(T790M)” value on kinases [2] (1 μM; EGFR(T790M)) was found to be 94 % Ctrl. At kinases [3] (1 μM; PDGFRB), the “% Ctrl, PDGFRB” value stood at 90 % Ctrl. Further, at kinases [4] (1 μM; KIT(D816H)), the “% Ctrl, KIT(D816H)” value is 74 % Ctrl. Further, the “% Ctrl, FLT3(D835H)” value on kinases [5] (1 μM; FLT3(D835H)) was found to be 53 % Ctrl. Also, on kinases [6] (1 μM; FLT3(D835V)), the “% Ctrl, FLT3(D835V)” value was determined as 8.5 % Ctrl.
In the case of `Cc1cc2c([nH]1)/C=C1\C(=O)Nc3ccc(cc31)-c1ccnn1CCOCCN(C)C2=O` [Ex. 41, [19a(20)Z]-2,5-dimethyl-6,7,9,10-tetrahydro-1H-15,17-(ethanediylidene)pyrazolo[1,5-d]dipyrrolo[3,4-h:2′,3′-k][1,4,14]oxadiazacyclohexadecine-4,19(5H,18H)-dione], on kinases [1] (1 μM; EGFR(S752-I759del)), the “% Ctrl, EGFR(S752-I759del)” value is given as 89 % Ctrl. Moreover, the “% Ctrl, EGFR(T790M)” value at kinases [2] (1 μM; EGFR(T790M)) amounted to 36 % Ctrl. On kinases [3] (1 μM; PDGFRB), the “% Ctrl, PDGFRB” value is recorded as 5.5 % Ctrl. In addition, on kinases [4] (1 μM; KIT(D816H)), the “% Ctrl, KIT(D816H)” value came out at 38 % Ctrl. For the same molecule, on kinases [5] (1 μM; FLT3(D835H)), the “% Ctrl, FLT3(D835H)” value came out at 5.2 % Ctrl. Also, the “% Ctrl, FLT3(D835V)” value at kinases [6] (1 μM; FLT3(D835V)) was 0.25 % Ctrl.
As for `Cc1cc2c([nH]1)/C=C1\C(=O)Nc3cnc(cc31)-c1cnn(C)c1COCCNC2=O` [Ex.123, [3a(4)Z]-6,14-dimethyl-10,11,13,14-tetrahydro-2H-17,1-(azenometheno)pyrazolo[4,3-m]dipyrrolo[3,2-f:3′,4′-i][1,4]oxazacyclopentadecine-3,8(5H,9H)-dione], on kinases [1] (1 μM; EGFR(S752-I759del)), the “% Ctrl, EGFR(S752-I759del)” value came to 93 % Ctrl. The “% Ctrl, EGFR(T790M)” value on kinases [2] (1 μM; EGFR(T790M)) is reported as 100 % Ctrl. Further, the “% Ctrl, PDGFRB” value on kinases [3] (1 μM; PDGFRB) was 94 % Ctrl. In addition, the “% Ctrl, KIT(D816H)” value at kinases [4] (1 μM; KIT(D816H)) is on record as 100 % Ctrl. In addition, at kinases [5] (1 μM; FLT3(D835H)), the “% Ctrl, FLT3(D835H)” value was 88 % Ctrl. In addition, the “% Ctrl, FLT3(D835V)” value on kinases [6] (1 μM; FLT3(D835V)) worked out at 91 % Ctrl.
As for `Cc1cc2c([nH]1)/C=C1\C(=O)Nc3ccc(cc31)O[C@@H](C)COCCN(C)C2=O` [Ex. 92, [10S,16a(17)Z]-2,5,10-trimethyl-6,7,9,10-tetrahydro-1H-12,14-(ethanediylidene)dipyrrolo[3,2-i:3′,4′-l][1,4,7]dioxazacyclopentadecine-4,16(5H,15H)-dione], at kinases [1] (1 μM; EGFR(S752-I759del)), the “% Ctrl, EGFR(S752-I759del)” value is 90 % Ctrl. In addition, the “% Ctrl, EGFR(T790M)” value on kinases [2] (1 μM; EGFR(T790M)) is 100 % Ctrl. The “% Ctrl, PDGFRB” value on kinases [3] (1 μM; PDGFRB) was 71 % Ctrl. In addition, the “% Ctrl, KIT(D816H)” value on kinases [4] (1 μM; KIT(D816H)) is 87 % Ctrl. For the same molecule, on kinases [5] (1 μM; FLT3(D835H)), the “% Ctrl, FLT3(D835H)” value was 32 % Ctrl. The “% Ctrl, FLT3(D835V)” value on kinases [6] (1 μM; FLT3(D835V)) came to 3.7 % Ctrl.
In the case of `Cc1cc2c([nH]1)/C=C1\C(=O)Nc3ccc(cc31)-c1cnn(C)c1CN(C)CCN(C)C2=O` [Ex. 126, [3a(4)Z]-6,9,12,14-tetramethyl-9,10,11,12,13,14-hexahydro-1,17-(ethanediylidene)pyrazolo[4,3-m]dipyrrolo[3,2-f:3′,4′-i][1,4]diazacyclopentadecine-3,8(2H,5H)-dione], on kinases [1] (1 μM; EGFR(S752-I759del)), the “% Ctrl, EGFR(S752-I759del)” value came to 32 % Ctrl. The “% Ctrl, EGFR(T790M)” value on kinases [2] (1 μM; EGFR(T790M)) came out at 1.6 % Ctrl. Also, the “% Ctrl, PDGFRB” value on kinases [3] (1 μM; PDGFRB) is 0 % Ctrl. Moreover, the “% Ctrl, KIT(D816H)” value at kinases [4] (1 μM; KIT(D816H)) worked out at 0 % Ctrl. Moreover, at kinases [5] (1 μM; FLT3(D835H)), the “% Ctrl, FLT3(D835H)” value was found to be 0.05 % Ctrl. Moreover, the “% Ctrl, FLT3(D835V)” value at kinases [6] (1 μM; FLT3(D835V)) stood at 0 % Ctrl.
Regarding `Cc1cc2c([nH]1)/C=C1\C(=O)Nc3ccc(cc31)-c1c(noc1C)CNCCN(C)C2=O` [Ex. 139, [3a(4)Z]-6,9,16-trimethyl-10,11,12,13-tetrahydro-2H-1,17-(ethanediylidene)[1,2]oxazolo[4,3-m]dipyrrolo[3,2-f:3′,4′-i][1,4]diazacyclopentadecine-3,8(5H,9H)-dione], the “% Ctrl, EGFR(S752-I759del)” value at kinases [1] (target EGFR(S752-I759del); 1 μM) is 74 % Ctrl. Besides, the “% Ctrl, EGFR(T790M)” value at kinases [2] (target EGFR(T790M); 1 μM) was 36 % Ctrl. Moreover, the “% Ctrl, PDGFRB” value on kinases [3] (target PDGFRB; 1 μM) turned out to be 73 % Ctrl. Besides, the “% Ctrl, KIT(D816H)” value at kinases [4] (target KIT(D816H); 1 μM) amounted to 67 % Ctrl. Also, the “% Ctrl, FLT3(D835H)” value at kinases [5] (target FLT3(D835H); 1 μM) was 14 % Ctrl. Further, on kinases [6] (target FLT3(D835V); 1 μM), the “% Ctrl, FLT3(D835V)” value came out at 0.9 % Ctrl.
On to `Cc1cc2c([nH]1)/C=C1\C(=O)Nc3cnc(cc31)-c1cnn(C)c1CN(C)CCN(C)C2=O` [Ex. 172, [3a(4)Z]-6,9,12,14-tetramethyl-9,10,11,12,13,14-hexahydro-17,1-(azenometheno)pyrazolo[4,3-m]dipyrrolo[3,2-f:3′,4′-i][1,4]diazacyclopentadecine-3,8(2H,5H)-dione], for which the “% Ctrl, EGFR(S752-I759del)” value on kinases [1] (setting [7]) was found to be 37 % Ctrl. Moreover, at kinases [2] (1 μM; target EGFR(T790M)), the “% Ctrl, EGFR(T790M)” value stood at 22 % Ctrl. Further, at kinases [3] (1 μM; target PDGFRB), the “% Ctrl, PDGFRB” value stood at 1.9 % Ctrl. For the same molecule, the “% Ctrl, KIT(D816H)” value at kinases [4] (1 μM; target KIT(D816H)) turned out to be 6.4 % Ctrl. On kinases [5] (1 μM; target FLT3(D835H)), the “% Ctrl, FLT3(D835H)” value stood at 4.2 % Ctrl. In addition, the “% Ctrl, FLT3(D835V)” value on kinases [6] (1 μM; target FLT3(D835V)) was 0.5 % Ctrl.
